These results are taken from ChEMBL document CHEMBL3576823, “Cystargolides, 20S Proteasome Inhibitors Isolated from Kitasatospora cystarginea” (J Nat Prod, 2015).

The target in experiment [1] is T1, Proteasome Macropain subunit MB1 (Homo sapiens, UniProt P28074).
T1 sequence (P28074 whole entry): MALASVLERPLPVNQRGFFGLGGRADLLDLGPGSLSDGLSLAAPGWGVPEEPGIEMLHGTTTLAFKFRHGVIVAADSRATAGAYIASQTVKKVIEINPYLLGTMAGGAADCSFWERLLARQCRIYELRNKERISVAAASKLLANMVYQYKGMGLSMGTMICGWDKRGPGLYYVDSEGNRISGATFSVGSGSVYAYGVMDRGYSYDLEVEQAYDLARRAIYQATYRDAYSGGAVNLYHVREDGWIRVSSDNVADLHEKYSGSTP
Briefly: Inhibition of chymotrypsin-like activity of human erythrocyte-derived 20S proteasome using Suc-LLVY-AMC as substrate preincubated for 10 mins followed by substrate addition measured every 15 secs for 30 mins by fluorescence assay.

The nature of experiment [2]: Inhibition of chymotrypsin-like activity of rabbit 20S proteasome using Suc-LLVY-AMC as substrate after 2 hrs by fluorescence assay. Also on record: species or system Oryctolagus cuniculus.
Experiment [3] is described as follows: Inhibition of proteasome (unknown origin). Further details: species or system Homo sapiens.

Each structure is given as a SMILES string.

Take `CC[C@H](C)[C@H](NC(=O)[C@@H](NC(=O)C1OC(=O)C1C(C)C)C(C)C)C(=O)O` (stereo not given in full): half-maximal inhibition in experiment [1] (IC50) was put at 360 nM. That is a sub-micromolar value. `CC[C@H](C)[C@@H]1C(=O)O[C@H]1C(=O)N[C@H]1C[C@H]1C[C@H](NC(=O)[C@H](C)N)C(=O)O` [BELACTOSIN A] had an IC50 in experiment [2] of 210 nM. That is a sub-micromolar value. The same measure, in the same setting: the value for `CC[C@H](C)[C@@H]1C(=O)O[C@H]1C(=O)NCCC[C@H](NC(=O)[C@H](C)N)C(=O)O` [BELACTOSIN C] was 210 nM.

`CC(C)C[C@H](NC(=O)[C@H](Cc1ccccc1)NC(=O)c1cnccn1)B(O)O` [BORTEZOMIB]: the Ki in experiment [3] was 0.6 nM. This counts as sub-nanomolar.

For `CC(C)C[C@H](NC(=O)[C@H](CCc1ccccc1)NC(=O)CN1CCOCC1)C(=O)N[C@@H](Cc1ccccc1)C(=O)N[C@@H](CC(C)C)C(=O)[C@@]1(C)CO1` [CARFILZOMIB], 5 nM corresponded to half-maximal inhibition in experiment [3] (IC50).
